Reference: patent US8669232B2, “Flavonol compounds, a bioactive extract/fraction from Ulmus wallichiana and its compounds for prevention for treatment of osteo-health related disorders” (Council of Scientific & Industrial Research, priority 2008, dated 2014)

Columns and labels:
calvarial osteoblasts = assay: Semi-quantitative RT-PCR of osteogenic genes; type: cell-based, neonatal Sprague-Dawley rats; conditions: 10^−7 M
Procedure: Neonatal rat calvarial cell cultures are prepared as described previously (Chattopadhyay et al., Endocrinology 145:3451-62, 2004) using slight modification. Briefly, for calvarial osteoblast cultures, frontal and parietal bones from neonatal Sprague-Dawley rats (1-3 day old) were digested in 0.1% collagenase/0.1% dispase in α-MEM to obtain 5 sequential digests. The second through fifth digests are combined and grown to confluence at 37° C. and 5% CO2 in air in α-MEM, supplemented with 10% fetal bovine serum (FBS), 2 mM glutamine, 100 U/ml penicillin-streptomycin, non-essential amino acid solution and sodium pyruvate.
RT-PCR was performed for assessing mRNA levels of Col1 (collagen type I), Cbfa-1 (Core binding factor-1), ALP (Alkaline phosphatase), OPN (osteopontin), BMP 2 (Bone morphogenic protein 2), OPG (Osteoprotegrin), and OCN (Osteocalcin). The house-keeping gene GAPDH (Glyceraldehyde-3-phosphate dehydrogenase) was used as the internal control in this study. RNAs were extracted at 0-, 4-, 8-, 12-, 24-, and 48 h. Total RNA was extracted using TRIzol reagent (Invitrogen). A single step RT PCR kit (Qaigen) was used to perform RT-PCR according to the manufacturer's instructions. Following gene specific primer pairs were used (Table 2).

[1] = tested on: BMCs (Bone Marrow Cells) from growing female rats; assay: Ex-vivo bone marrow cultures from treated immature rats (ALP, mineralization); type: in vivo, Sprague Dawley rats; conditions: BMCs from growing rats treated with 5.0 mg/kg body weight for 30 days; vs controls
From the text: Right femur of control and C002 treated rats were collected aseptically in PBS during autopsy from the rats. Soft tissue was removed, and the ends of the femur was clipped off using sterile scissors, a hole was created in the knee joint end of each bone with a needle, and the marrow was flushed out from the shaft with control medium (CM) which consisted of α-MEM supplemented with 10% fetal calf serum, 100 U/ml penicillin, 100 U/ml streptomycin (Sigma, Chemical Co., St. Louis, Mo., USA). The cells were suspended in this medium, and the suspensions were spun down at 800 rpm for 5 min. Cells were resuspended in fresh CM and counted using a haemocytometer. […] ALP activity was determined as described by Akiyama et al. with modifications. Briefly, cells were washed once with PBS, then, ALP activity was measured by adding ALP buffer (1 M diethanolamine, 0.5 mM MgCl2, 1 mg/ml PNPP, pH 9.0), incubating in 37° C., and absorbance (405 nm) was read using a microplate spectrophotometer. Statistical significance was determined by paired two-tailed Student's t-tests. […]
Right femur of control and K058 treated rats were collected aseptically in PBS during autopsy from the rats. […] Cells were resuspended in fresh CM and counted using a haemocytometer. […] ALP activity was determined as described by Akiyama et al. with modifications. […] Statistical significance was determined by paired two-tailed Student's t-tests.

O=C1c2c(cc(O)c([C@@H]3OC(CO)[C@@H](O)[C@H](O)C3O)c2O)O[C@@H](c2ccc(O)c(O)c2)[C@@H]1O (stereo partly drawn) [K058, (2S,3S)-(+)-3′,4′,5,7-tetrahydroxydihydroflavonol-6-C-β-D-glucopyranoside]
increased: mRNA levels of OPG (Osteoprotegrin) (calvarial osteoblasts) | mRNA levels of Alkaline phosphatase (ALP) (calvarial osteoblasts; 0 to 48 h) | mRNA levels of bone morphogenic protein-2 (BMP-2) (calvarial osteoblasts; 0 to 48 h) | mRNA levels of collagen I (COL-1) (calvarial osteoblasts; 0 to 48 h) | mRNA levels of core binding factor-1 (Cbfa-1) (calvarial osteoblasts; 0 to 48 h) | mRNA levels of osteocalcin (OCN) (calvarial osteoblasts; 0 to 48 h)
significantly more: ALP activity of BMCs (osteoblast differentiation) [1] | mineralization of BMCs (alizarin red-S) [1]
